In US4929620A, “5-pyrimidinyl-3,5-dihydroxy-6-heptenoic acid compounds useful as inhibitors of cholesterol biosynthesis” (Warner-Lambert Company, priority 1989, dated 1990):
pIC50: −log10 of the molar value.

system: sterol synthesis; experiment: CSI screen: incorporation of 14C-acetate into nonsaponifiable lipid by rat liver homogenate (inhibition of cholesterol biosynthesis); assay type: biochemical; settings: 50% inhibition of sterol synthesis over a one-hour period, livers of rats fed 5% cholestyramine chow for four days
Protocol: The ability of compounds of the present invention to inhibit the biosynthesis of cholesterol was measured by a method (designated CSI screen) which utilizes the procedure described by R. E. Dugan et al, Archiv. Biochem. Biophys., (1972), 152, 21-27. In this method, the level of HMG-CoA enzyme activity in standard laboratory rats is increased by feeding the rats a chow diet containing 5% cholestyramine for four days, after which the rats are sacrificed.
The rat livers are homogenized, and the incorporation of 14C-acetate into nonsaponifiable lipid by the rat liver homogenate is measured. The micromolar concentration of compound required for 50% inhibition of sterol synthesis over a one-hour period is measured, and expressed as an IC50 value.
The activities of several representative examples of compounds in accordance with the present invention appear in Table 1.

Point of comparison: `Cc1cc(C)cc(-c2nc(-c3ccccc3)nc(C)c2/C=C/[C@@H]2C[C@@H](O)CC(=O)O2)c1` (relative stereo) [[4α, 6β(E)]-6-[2-[4-(3,5-Dimethylphenyl)-6-methyl-2-phenyl-5-pyrimidinyl]ethenyl]-tetrahydro-4-hydroxy-2H-pyran-2-one], pIC50 6.66. Against it:
- Cc1nc(C)c(/C=C/[C@@H]2C[C@@H](O)CC(=O)O2)c(-c2ccc(F)cc2)n1 (relative stereo) [[4α, 6β(E)]-6-[2-[4-(4-Fluorophenyl)-2,6-dimethyl-5-pyrimidinyl]ethenyl]tetrahydro-4-hydroxy-2H-pyran-2-one] — 0.23 log units higher, 6.89
- Cc1nc(-c2ccccc2)nc(-c2ccc(F)cc2)c1/C=C/[C@@H]1C[C@@H](O)CC(=O)O1 (relative stereo) [[4α, 6β(E)]-6-[2-[4-(4-Fluorophenyl)-6-methyl-2-phenyl-5-pyrimidinyl]ethenyl]tetrahydro-4-hydroxy-2H-pyran-2-one] — within 0.2 log units, 6.82
